# Literature values in US7009061B2, “Diterpene compounds” (Nihon University, priority 2003, dated 2006).
# Test system: P-388 cells
row,Compound,depressive activities against P-388 cells in vivo
1,CCCCCCCCCCCCCCCC(=O)OCC1=C[C@@H]2C(=O)[C@]3(C=C(C)[C@H](OC(=O)C(C)C(C)C)[C@@]3(O)[C@@H]1O)[C@H](C)C[C@]1(OC(=O)CCCCCCCCCCC)[C@H]2C1(C)C (some centres unmarked) [kansuiphorin A],depressive activities
2,kanusiphorin B,depressive activities
